This is an account of results in US11497746B2, “Pharmaceutical combinations comprising a histone deacetylase inhibitor and a programmed death-ligand 1 (PD-L1) inhibitor and methods of use thereof” (Acetylon Pharmaceuticals, Inc., priority 2016, dated 2022).

For series [1], the system named is H929 multiple myeloma cells. Put plainly: PD-L1 expression by flow cytometry in H929 cells. The class given is cell-based. Conditions: Compound A 1 μM and 2 μM, 48 hours, flow cytometry (FIG. 1). How it is done: After bone marrow aspiration, fresh bone marrow mononuclear cells (MNC) were obtained by ammonium chloride based-lyses of red cells followed by washing in phosphate-buffered saline (PBS). For ADCC assays, cells were immediately incubated with anti-PD-L1 antibody (BMS-936559, also referred to herein as “MDX-1105” 1 μg/mL) in the presence of Compound A or Compound B in complete medium in 96-well plate. The cells were incubated for 72 h at 37° C. in a 5% CO2 environment. The viability of primary MM cells in BM MNC was determined by near infrared (n-IR) viability dyes. The surviving CD138+ MM cells were enumerated in the presence of Flow-Count Fluorospheres (Beckman Coulter, CA, USA), to determine absolute numbers of viable MM cells. Phenotypic analyses of MNC were performed using a single 5-color combination of monoclonal antibodies containing BV421/PD-L1(CD274)-BV711 (BD Biosciences, San Jose, Calif., USA). PD-L1 on plasma cells was determined using a commercial assay (BD Biosciences, San Jose, Calif., USA). After incubation, cells were washed twice in PBS containing 2% BSA, and then re-suspended in PBS for analysis on a Fortessa cytometer (Becton Dickinson, Mountain View, Calif.). MM cell lines were also applied to this method in some experiments. […]
In general terms: A flow cytometer gives signals particle by particle.

For series [2], the system named is U266 cells. Put plainly: PD-L1 expression in U266 cells cultured in stromal cell supernatant. The class given is cell-based. The conditions noted are these: Compound B 1 μM, 48 hours, FCM (FIG. 3). On the procedure: Mononuclear cells separated by Ficoll-Hypaque density sedimentation from bone marrow aspirates were cultured in 15% FBS-RPMI1640 for 5-6 weeks to establish long-term bone marrow stromal cells. Culture supernatant from BMSCs was used for stimulation of MM cell lines.
(§1) After bone marrow aspiration, fresh bone marrow mononuclear cells (MNC) were obtained by ammonium chloride based-lyses of red cells followed by washing in phosphate-buffered saline (PBS). For ADCC assays, cells were immediately incubated with anti-PD-L1 antibody (BMS-936559, also referred to herein as “MDX-1105” 1 μg/mL) in the presence of Compound A or Compound B in complete medium in 96-well plate. The cells were incubated for 72 h at 37° C. in a 5% CO2 environment. The viability of primary MM cells in BM MNC was determined by near infrared (n-IR) viability dyes. The surviving CD138+ MM cells were enumerated in the presence of Flow-Count Fluorospheres (Beckman Coulter, CA, USA), to determine absolute numbers of viable MM cells. […] PD-L1 on plasma cells was determined using a commercial assay (BD Biosciences, San Jose, Calif., USA). […]
To determine the effect stromal cell priming has on PD-L1 expression in U266 cells treated with Compound B, U266 cells were cultured in stromal cell supernatant (sup) in the presence or absence of Compound B (1 μM) for 48 hours. PD-L1 expression was assessed by FCM. […]

In series [3] the test system is H929 cells. The experiment in a line: anti-PD-L1 antibody-dependent cell-mediated cytotoxicity in H929 cells. The conditions noted are these: H929 cells with PBMCs, Compound B alone 0.25, 0.5, 1 μM, 72 h, then anti-PD-L1 antibody 0.5 μg/ml 3 h, FCM (FIG. 7). It is filed as cell-based. On the procedure: After bone marrow aspiration, fresh bone marrow mononuclear cells (MNC) were obtained by ammonium chloride based-lyses of red cells followed by washing in phosphate-buffered saline (PBS). For ADCC assays, cells were immediately incubated with anti-PD-L1 antibody (BMS-936559, also referred to herein as “MDX-1105” 1 μg/mL) in the presence of Compound A or Compound B in complete medium in 96-well plate. The cells were incubated for 72 h at 37° C. in a 5% CO2 environment. The viability of primary MM cells in BM MNC was determined by near infrared (n-IR) viability dyes. […] PD-L1 on plasma cells was determined using a commercial assay (BD Biosciences, San Jose, Calif., USA). […]
To assess the effect of Compound B in combination with pomalidomide on ADCC using anti-PD-L1 antibody-dependent cell-mediated cytotoxicity in H929 cells, H929 cells were stained with carboxyfluorescein succinimidyl ester (CFSE) and cultured with PBMCs in the presence or absence of pomalidomide (0.1 μM), Compound B (0.25, 0.5, 1 μM) for 72 hours. […] Cytotoxicity was assessed by FCM. […]
H929 cells were stained with CFSE and cultured with PBMCs in the presence or absence of pomalidomide (0.1 μM), Compound B (0.25, 0.5, 1 μM) for 72 h. […] Cytotoxicity was assessed by FCM (FIG. 7). […]

For series [4], the system named is U266 cells. The experiment in a line: anti-PD-L1 antibody-dependent cell-mediated cytotoxicity in U266 cells. The conditions noted are these: Compound B 1 μM plus stromal cell supernatant 48 hours, then anti-PD-L1 antibody 1 μg/ml and PBMC (E/T=15/1 and 30/1) 5 hours, FCM (FIG. 4). It is filed as cell-based. How it is done: Multiple myeloma cells were incubated with Calcein-AM (Invitrogen, 2 μg/ml/1 million cells) for 30 min at 37° C. After washing, the cells were used for target cells. Mononuclear cells were obtained from healthy volunteer peripheral blood by Ficoll-Paque density centrifugation and used for effector cells. […] Percent specific lysis was calculated as follows, % specific lysis=[experiment fluorescence−spontaneous fluorescence (no effector)]/[complete lysis (100% killing by detergent)−spontaneous fluorescence (no effector)]×100.
as §1

Series [5] concerns Mononuclear cells from MM patients' bone marrow aspirates. Put plainly: anti-PD-L1 antibody induced cytotoxicity, autologous setting, ex vivo. The conditions noted are these: anti-PD-L1 Ab 0.5 μg/ml, Compound B 0.5 μM, 72 h (FIG. 8 and FIG. 9). It is filed as cell-based, human. How it is done: After bone marrow aspiration, fresh bone marrow mononuclear cells (MNC) were obtained by ammonium chloride based-lyses of red cells followed by washing in phosphate-buffered saline (PBS). […] The cells were incubated for 72 h at 37° C. in a 5% CO2 environment. The viability of primary MM cells in BM MNC was determined by near infrared (n-IR) viability dyes. The surviving CD138+ MM cells were enumerated in the presence of Flow-Count Fluorospheres (Beckman Coulter, CA, USA), to determine absolute numbers of viable MM cells. Phenotypic analyses of MNC were performed using a single 5-color combination of monoclonal antibodies containing BV421/PD-L1(CD274)-BV711 (BD Biosciences, San Jose, Calif., USA). PD-L1 on plasma cells was determined using a commercial assay (BD Biosciences, San Jose, Calif., USA). After incubation, cells were washed twice in PBS containing 2% BSA, and then re-suspended in PBS for analysis on a Fortessa cytometer (Becton Dickinson, Mountain View, Calif.). MM cell lines were also applied to this method in some experiments.
H929 cells were stained with CFSE and cultured with PBMCs in the presence or absence of pomalidomide (0.1 μM), Compound B (0.25, 0.5, 1 μM) for 72 h. The cells were then incubated with Ab (0.5 μg/ml PD-L1) for 3 h. Cytotoxicity was assessed by FCM (FIG. 7). […]

Series [6] deals with MM.1S, H929, KMS12-PE, OPM1 and U266 multiple myeloma cells. Put plainly: PD-L1 expression in a panel of multiple myeloma cell lines. It is filed as cell-based. Conditions: 2 μM, 48 hours (FIG. 2). On the procedure: After bone marrow aspiration, fresh bone marrow mononuclear cells (MNC) were obtained by ammonium chloride based-lyses of red cells followed by washing in phosphate-buffered saline (PBS). For ADCC assays, cells were immediately incubated with anti-PD-L1 antibody (BMS-936559, also referred to herein as “MDX-1105” 1 μg/mL) in the presence of Compound A or Compound B in complete medium in 96-well plate. […] The viability of primary MM cells in BM MNC was determined by near infrared (n-IR) viability dyes. The surviving CD138+ MM cells were enumerated in the presence of Flow-Count Fluorospheres (Beckman Coulter, CA, USA), to determine absolute numbers of viable MM cells. Phenotypic analyses of MNC were performed using a single 5-color combination of monoclonal antibodies containing BV421/PD-L1(CD274)-BV711 (BD Biosciences, San Jose, Calif., USA). PD-L1 on plasma cells was determined using a commercial assay (BD Biosciences, San Jose, Calif., USA). After incubation, cells were washed twice in PBS containing 2% BSA, and then re-suspended in PBS for analysis on a Fortessa cytometer (Becton Dickinson, Mountain View, Calif.). MM cell lines were also applied to this method in some experiments.

Series [7] has as its system RPMI8226 cells. The experiment in a line: anti-PD-L1 antibody-dependent cell-mediated cytotoxicity in RPMI8226 cells. The class given is cell-based. Conditions: RPMI8226 cells with PBMCs (E/T=15/1), pomalidomide 0.1 μM 72 hours, then anti-PD-L1 antibody 0.5 μg/ml 3 hours, FCM (FIG. 5). How it is done: After bone marrow aspiration, fresh bone marrow mononuclear cells (MNC) were obtained by ammonium chloride based-lyses of red cells followed by washing in phosphate-buffered saline (PBS). For ADCC assays, cells were immediately incubated with anti-PD-L1 antibody (BMS-936559, also referred to herein as “MDX-1105” 1 μg/mL) in the presence of Compound A or Compound B in complete medium in 96-well plate. The cells were incubated for 72 h at 37° C. in a 5% CO2 environment. The viability of primary MM cells in BM MNC was determined by near infrared (n-IR) viability dyes. The surviving CD138+ MM cells were enumerated in the presence of Flow-Count Fluorospheres (Beckman Coulter, CA, USA), to determine absolute numbers of viable MM cells. Phenotypic analyses of MNC were performed using a single 5-color combination of monoclonal antibodies containing BV421/PD-L1(CD274)-BV711 (BD Biosciences, San Jose, Calif., USA). PD-L1 on plasma cells was determined using a commercial assay (BD Biosciences, San Jose, Calif., USA). […]
Similarly, RPMI8226 cells were cultured with PBMCs (E/T=15/1) in the presence or absence of pomalidomide (Pom, 0.1 μM) for 72 hours. After subsequent cultivation with anti-PD-L1 antibody (0.5 μg/ml) for 3 hours, percent specific killing was assessed by FCM. […]

With `O=C(CCCCCCNC(=O)c1cnc(N(c2ccccc2)c2ccccc2)nc1)NO` [Compound A, 2-(diphenylamino)-N-(7-(hydroxyamino)-7-oxoheptyl)pyrimidine-5-carboxamide], the PD-L1 expression entry in series [1] is recorded as “increased”.
For `O=C(CCCCCCNC(=O)c1cnc(N(c2ccccc2)c2ccccc2Cl)nc1)NO` [Compound B, 2-((2-chlorophenyl)(phenyl)amino)-N-(7-(hydroxyamino)-7-oxoheptyl)pyrimidine-5-carboxamide], the PD-L1 expression entry is “highest” in series [2] and “enhanced” in series [6]. The “anti-PD-L1 Ab-induced cytotoxicity” value in series [3] is “enhanced”. In addition, the percent specific lysis entry in series [4] is “greatest”. Moreover, the anti-PD-L1 antibody induced-cytotoxicity entry in series [5] is on record as “enhanced”.
On to `Nc1cccc2c1C(=O)N(C1CCC(=O)NC1=O)C2=O` (stereo not shown) [Pomalidomide, pomalidomide], for which the “percent specific killing (cytotoxicity)” value in series [7] was “enhanced”.
